The text below walks through data of ChEMBL document CHEMBL4184249, “Structural development of tetrachlorophthalimides as liver X receptor β (LXRβ)-selective agonists with improved aqueous solubility” (Bioorg Med Chem Lett, 2018).

Usually EC50 stands for the concentration needed to bring the measured effect to its halfway point. As a reminder, the solubility is how much of the substance goes into solution per volume. Read a high solubility as much dissolved substance.

Series [1] has as its target T1, Oxysterols receptor LXR-alpha (Homo sapiens) (UniProt Q13133).
T1 sequence (whole entry): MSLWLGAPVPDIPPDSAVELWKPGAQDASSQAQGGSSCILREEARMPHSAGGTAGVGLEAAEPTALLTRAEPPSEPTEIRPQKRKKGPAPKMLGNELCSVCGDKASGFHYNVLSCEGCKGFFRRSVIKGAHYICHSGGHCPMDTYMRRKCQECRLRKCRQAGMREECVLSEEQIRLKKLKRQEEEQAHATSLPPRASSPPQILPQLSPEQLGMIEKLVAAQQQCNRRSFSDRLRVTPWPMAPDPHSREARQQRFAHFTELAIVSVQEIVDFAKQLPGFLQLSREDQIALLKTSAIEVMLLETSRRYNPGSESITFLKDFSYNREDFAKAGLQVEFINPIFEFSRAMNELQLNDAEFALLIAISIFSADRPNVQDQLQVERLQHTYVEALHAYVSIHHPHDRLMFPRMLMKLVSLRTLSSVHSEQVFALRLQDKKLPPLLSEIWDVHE
The series can be described thus: Agonist activity at human LXRalpha expressed in HEK293 cells co-expressing CMX-beta-galactosidase at 30 uM incubated for 16 hrs by luciferase reporter gene assay. The class given is cell-based. Background: In a reporter assay the amount or activity of a reporter protein is the signal.

Series [2] addresses T2, Oxysterols receptor LXR-beta (Homo sapiens, UniProt P55055).
T2 sequence (P55055 whole entry): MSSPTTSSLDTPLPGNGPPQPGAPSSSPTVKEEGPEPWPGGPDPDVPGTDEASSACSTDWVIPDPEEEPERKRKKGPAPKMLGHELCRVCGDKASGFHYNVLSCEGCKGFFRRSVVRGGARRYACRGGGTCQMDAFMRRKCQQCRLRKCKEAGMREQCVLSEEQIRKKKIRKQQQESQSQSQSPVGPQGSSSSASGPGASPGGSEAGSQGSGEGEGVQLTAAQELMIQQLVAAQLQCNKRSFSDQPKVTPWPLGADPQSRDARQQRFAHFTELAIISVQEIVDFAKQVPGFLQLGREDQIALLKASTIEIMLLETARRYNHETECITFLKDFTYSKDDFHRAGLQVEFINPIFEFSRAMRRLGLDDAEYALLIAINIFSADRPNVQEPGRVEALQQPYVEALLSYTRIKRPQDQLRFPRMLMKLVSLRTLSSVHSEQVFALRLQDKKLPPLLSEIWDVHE
The series can be described thus: Agonist activity at human LXRbeta expressed in HEK293 cells co-expressing CMX-beta-galactosidase incubated for 16 hrs by luciferase reporter gene assay. The class given is cell-based.

For series [3], the target named is T3, Oxysterols receptor LXR-beta (Homo sapiens) (UniProt P55055).
T3 sequence (whole entry): T2 sequence (P55055 whole entry)
The series can be described thus: Agonist activity at human LXRbeta expressed in HEK293 cells co-expressing CMX-beta-galactosidase incubated for 16 hrs at 30 uM by luciferase reporter gene assay relative to T0901317. In kind it is cell-based.

The target of series [4] is T3, Oxysterols receptor LXR-beta (Homo sapiens). The series can be described thus: Agonist activity at human LXRbeta expressed in HEK293 cells co-expressing CMX-beta-galactosidase incubated for 16 hrs by luciferase reporter gene assay relative to T0901317. The class given is cell-based.
Series [5] deals with T4, Oxysterols receptor LXR-alpha (Mus musculus) (UniProt Q9Z0Y9).
T4 sequence (whole entry): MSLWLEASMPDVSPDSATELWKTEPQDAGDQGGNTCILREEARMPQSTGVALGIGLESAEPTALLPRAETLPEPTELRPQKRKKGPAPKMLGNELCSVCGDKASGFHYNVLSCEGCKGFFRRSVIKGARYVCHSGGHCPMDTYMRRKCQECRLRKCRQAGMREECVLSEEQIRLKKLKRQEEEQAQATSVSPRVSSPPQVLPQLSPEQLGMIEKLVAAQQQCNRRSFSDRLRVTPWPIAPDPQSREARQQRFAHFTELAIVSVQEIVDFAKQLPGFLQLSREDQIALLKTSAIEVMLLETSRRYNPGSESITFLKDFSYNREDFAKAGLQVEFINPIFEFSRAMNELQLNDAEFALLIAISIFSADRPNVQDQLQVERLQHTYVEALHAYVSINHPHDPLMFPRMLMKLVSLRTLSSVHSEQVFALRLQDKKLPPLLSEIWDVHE
Kind of series: Agonist activity at mouse LXRalpha expressed in HEK293 cells co-expressing CMX-beta-galactosidase at 30 uM incubated for 16 hrs by luciferase reporter gene assay. The class given is cell-based.

Series [6] has as its target T5, Oxysterols receptor LXR-beta (Mus musculus, UniProt Q60644).
T5 sequence (Q60644 whole entry): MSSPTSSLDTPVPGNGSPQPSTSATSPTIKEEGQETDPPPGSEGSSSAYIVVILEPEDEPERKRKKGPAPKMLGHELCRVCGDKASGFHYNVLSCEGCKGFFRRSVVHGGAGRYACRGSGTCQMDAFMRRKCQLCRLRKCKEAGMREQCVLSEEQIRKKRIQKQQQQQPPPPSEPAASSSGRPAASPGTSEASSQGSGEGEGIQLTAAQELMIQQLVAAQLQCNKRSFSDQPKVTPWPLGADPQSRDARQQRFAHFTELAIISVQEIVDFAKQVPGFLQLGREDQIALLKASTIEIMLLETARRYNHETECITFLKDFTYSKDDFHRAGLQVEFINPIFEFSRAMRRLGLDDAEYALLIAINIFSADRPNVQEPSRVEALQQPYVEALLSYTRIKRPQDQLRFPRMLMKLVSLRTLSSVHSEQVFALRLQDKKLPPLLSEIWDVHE
The series can be described thus: Agonist activity at mouse LXRbeta expressed in HEK293 cells co-expressing CMX-beta-galactosidase incubated for 16 hrs by luciferase reporter gene assay. In kind it is cell-based.

Series [7] deals with T6, Oxysterols receptor LXR-beta (Mus musculus) (UniProt Q60644).
T6 sequence (whole entry): T5 sequence (Q60644 whole entry)
The series can be described thus: Agonist activity at mouse LXRbeta expressed in HEK293 cells co-expressing CMX-beta-galactosidase incubated for 16 hrs by luciferase reporter gene assay relative to T0901317. In kind it is cell-based.

A short description of series [8]: Aqueous solubility of the compound in EtOH: 1/15 M phosphate buffer at pH 7.4 1:1 by HPLC method. The class given is physicochemical.
The target in series [9] is T3, Oxysterols receptor LXR-beta (Homo sapiens). Kind of series: Agonist activity at LXRbeta in human THP1 cells assessed as increase in ABCA1 mRNA expression at 1 uM by real-time quantitative RT-PCR method. The class given is cell-based.
Series [10] has the same target. Kind of series: Agonist activity at human LXRbeta expressed in HEK293 cells co-expressing CMX-beta-galactosidase at 30 uM incubated for 16 hrs by luciferase reporter gene assay. In kind it is cell-based.

Converted amounts (≈) assume the structure as drawn. The source made the active and inactive calls. No cut-off for these calls is given here. A value given as a limit tells only on which side of the number the result lay.

Turning to `O=C1c2c(Cl)c(Cl)c(Cl)c(Cl)c2C(=O)N1c1ccccc1/C=C/c1ccncc1`, the result in series [1] was inactive. This compound also came in with an EC50 in [2] greater than 10 µM. This compound also showed an Efficacy in series [3] of 35%.

For the compound `O=C1c2c(Cl)c(Cl)c(Cl)c(Cl)c2C(=O)N1c1ccccc1Cc1ccccc1`, the result in series [1] and in [5] was inactive. In addition, in series [4], the Efficacy is 109%. A half-maximal effect in series [2] (EC50) was put at 8 µM.

Take `O=C1c2c(Cl)c(Cl)c(Cl)c(Cl)c2C(=O)N1c1ccccc1/C=C\c1ccccc1`: the outcome in series [1] was inactive. In addition, the EC50 in [2] was greater than 10 µM. The compound further displayed an Efficacy in series [3] of 104%.

Consider `O=C1c2c(Cl)c(Cl)c(Cl)c(Cl)c2C(=O)N1c1ccccc1/C=C/c1ccsc1`, for which the result in series [1] and in series [5] was inactive. Moreover, the Efficacy in [4] amounted to 133%; in [7], 23%. Also, the EC50 in series [6] is 820 nM; in [2] it was 0.915 µM.

For the compound `O=C1c2c(Cl)c(Cl)c(Cl)c(Cl)c2C(=O)N1c1ccccc1-c1ccccc1`, the outcome in [1] was inactive. The same compound gave an Efficacy in series [4] of 153%. The EC50 in series [2] stood at 1.73 µM.

On to `O=C1c2c(Cl)c(Cl)c(Cl)c(Cl)c2C(=O)N1c1ccccc1/C=C/c1cccnc1`, for which the outcome in [1] was inactive. This compound also registered an Efficacy in series [4] of 141%. Also, in [2], the 50% effective concentration (EC50) is 4.96 µM.

`O=C1c2c(Cl)c(Cl)c(Cl)c(Cl)c2C(=O)N1c1ccccc1/C=C/c1nccs1`: the result in series [1] and in series [5] was inactive. The Efficacy is 151% in [4] and 22% in [7]. Moreover, the EC50 in series [6] came out at 2930 nM; in series [2], 3.61 µM.

With `O=C1c2c(Cl)c(Cl)c(Cl)c(Cl)c2C(=O)N1c1ccccc1/C=C/c1ccccc1`, the outcome in series [1] and in series [5] was inactive. In [8], this compound displayed a solubility of 3.6 ng/mL (≈ 7.77 nM). Besides, the Efficacy in series [4] was 143%; in [7] it was 26%. Further, the results for the concentration for a half-maximal effect (EC50) in [6] and in [2] were 300 nM and 0.27 µM, respectively. Moreover, the result in series [9] was Active.

On to `O=C1c2c(Cl)c(Cl)c(Cl)c(Cl)c2C(=O)N1c1ccccc1Oc1ccccc1`, for which the outcome in [1] and in [5] was inactive. The Efficacy in [4] was found to be 99%. For the same compound, the EC50 in series [2] is 8.98 µM.

As to `O=C1c2c(Cl)c(Cl)c(Cl)c(Cl)c2C(=O)N1c1cccc2ccccc12`, the result in series [10] and in [1] was inactive.

As for `O=C1c2c(Cl)c(Cl)c(Cl)c(Cl)c2C(=O)N1c1ccccc1/C=C/c1ccccn1`, the result in series [1] was inactive. Moreover, in series [4], the Efficacy was 148%. In addition, the midpoint of the response in series [2], the EC50, lay at 4.77 µM.

In the case of `O=C1c2c(Cl)c(Cl)c(Cl)c(Cl)c2C(=O)N1c1ccccc1CCc1ccccc1`, in series [1], the outcome was inactive. The compound also gave an Efficacy in [4] of 117%. In [2], this compound yielded an EC50 of 4.98 µM.

Consider `O=C1c2c(Cl)c(Cl)c(Cl)c(Cl)c2C(=O)N1c1ccccc1/C=C/c1ccco1`, for which the outcome in series [1] was inactive. The Efficacy in series [4] was found to be 167%. This compound also had an EC50 in series [2] of 4.67 µM.
